From ChEMBL document CHEMBL1287646, “Chemometric modeling of free radical scavenging activity of flavone derivatives” (Eur J Med Chem, 2010)

Tested on: Radical scavenging activity
Experiment: Antioxidant activity assessed as DPPH radical scavenging activity
Format: functional

In order of rising ED50:
1. O=C(Cc1ccc(O)c(O)c1)c1ccc(O)c(O)c1O  12 µM
2. O=c1c(-c2ccc(O)c(O)c2)coc2c(O)c(O)ccc12  16 µM
3. Cc1c(O)cc(C(=O)Cc2ccc(O)c(O)c2)c(O)c1C  18 µM
4. CC(C(=O)c1ccc(O)c(O)c1O)c1ccc(O)cc1 (stereo not given)  18 µM
5. COc1cc(O)c(C(=O)Cc2ccc(O)c(O)c2)cc1O  19 µM
6. COc1ccc(C(=O)Cc2ccc(O)c(O)c2)c(O)c1O  20 µM
7. Cc1cc(O)c(C(=O)Cc2ccc(O)c(O)c2)cc1O  20 µM
8. COc1ccc(C(=O)Cc2ccccc2)c(O)c1O  20 µM
9. O=C(Cc1ccc(O)c(O)c1)c1ccc(O)cc1O  20 µM
10. COc1cc(CC(=O)c2cc(O)c(C)cc2O)ccc1O  22 µM
11. O=C(Cc1ccc(O)cc1)c1ccc(O)c(O)c1O  22 µM
12. Oc1ccc(C2COc3c(ccc(O)c3O)C2)cc1O (stereo not given)  22 µM
13. CC(C(=O)c1ccc(O)c(O)c1O)c1ccccc1 (stereo not given)  23 µM
14. COc1ccc(CC(=O)c2cc(O)c(C)cc2O)cc1  23 µM
15. Cc1cc2occ(-c3ccc(O)c(O)c3)c(=O)c2cc1O  23 µM
16. COc1cc(O)c(C(=O)Cc2ccc(O)c(O)c2)cc1OC  25 µM
17. COc1cc(CC(=O)c2ccc(O)c(O)c2O)ccc1O  25 µM
18. COc1cc(CC(=O)c2cc(O)c(OC)cc2O)ccc1O  26 µM
19. COc1ccc(C2COc3cc(O)cc(O)c3C2)cc1 (stereo not given)  26 µM
20. COc1ccc(C2COc3cc(O)c(OC)cc3C2)cc1 (stereo not given)  26 µM
21. COc1cc2c(cc1O)OCC(c1ccc(O)cc1)C2 (stereo not given)  26 µM
22. O=C(Cc1ccc(O)cc1)c1cc(O)c(O)cc1O  27 µM
23. COc1cc(CC(=O)c2ccc(OC)c(O)c2O)ccc1O  28 µM
24. COc1ccc(-c2coc3cc(O)c(O)cc3c2=O)cc1  29 µM
25. O=C(Cc1ccccc1)c1cc(O)c(O)cc1O  29 µM
26. O=c1c(-c2ccc(O)cc2)coc2cc(O)c(O)cc12  29 µM
27. COc1cc2c(cc1O)OCC(c1ccccc1)C2 (stereo not given)  29 µM
28. O=c1c(-c2ccccc2)coc2c(O)c(O)ccc12  29 µM
29. O=c1c(-c2ccc(O)c(O)c2)coc2cc(O)ccc12  30 µM
30. Cc1cc(O)c(C(=O)Cc2ccc(O)cc2)cc1O  31 µM
31. COc1ccc(CC(=O)c2cc(O)c(OC)cc2O)cc1  31 µM
32. Oc1ccc(C2COc3cc(O)cc(O)c3C2)cc1 (stereo not given)  32 µM
33. O=C(Cc1ccccc1)c1ccc(O)c(O)c1O  32 µM
34. COc1ccc(CC(=O)c2cc(O)c(O)cc2O)cc1  32 µM
35. COc1cc(-c2coc3c(O)c(O)ccc3c2=O)ccc1O  33 µM
36. Cc1c(O)cc(C(=O)Cc2ccc(O)cc2)c(O)c1C  33 µM
37. O=c1c(-c2ccc(O)cc2)coc2c(O)c(O)ccc12  34 µM
38. COc1cc2occ(-c3ccc(O)c(O)c3)c(=O)c2cc1O  36 µM
39. COc1ccc(C2COc3c(ccc(O)c3O)C2)cc1 (stereo not given)  36 µM
40. Oc1ccc(C2COc3c(ccc(O)c3O)C2)cc1 (stereo not given)  37 µM
41. Oc1ccc2c(c1O)OCC(c1ccccc1)C2 (stereo not given)  37 µM
42. Oc1ccc2c(c1)OCC(c1ccc(O)c(O)c1)C2 (stereo not given)  37 µM
43. COc1ccc(CC(=O)c2ccc(O)c(O)c2O)cc1  38 µM
44. COc1cc(O)c(C(=O)Cc2ccc(O)cc2)cc1O  38 µM
45. COc1cc(O)c(C(=O)Cc2ccc(OC)c(OC)c2)cc1O  39 µM
46. Cc1c(O)cc(C(=O)Cc2ccccc2)c(O)c1C  42 µM
47. Cc1cc(O)c(C(=O)Cc2ccccc2)cc1O  43 µM
48. O=c1c(-c2ccccc2)coc2cc(O)c(O)cc12  44 µM
49. COc1ccc(CC(=O)c2ccc(OC)c(O)c2O)cc1  44 µM
50. COc1ccc(C2COc3cc(C)c(O)cc3C2)cc1 (stereo not given)  45 µM
51. COc1cc(O)c(C(=O)C(C)c2ccc(O)cc2)cc1O (stereo not given)  45 µM
52. Cc1ccc2c(=O)c(-c3ccc(O)c(O)c3)coc2c1O  46 µM
53. COc1cc2occ(-c3ccc(O)c(O)c3)c(=O)c2cc1OC  46 µM
54. COc1cc(O)c(C(=O)C(C)c2ccccc2)cc1O (stereo not given)  48 µM
55. COc1cc2c(cc1O)CC(c1ccccc1)CO2 (stereo not given)  49 µM
56. COc1ccc(-c2coc3c(O)c(O)ccc3c2=O)cc1  51 µM
57. COc1cc(O)c(C(=O)Cc2ccccc2)cc1O  51 µM
58. COc1ccc(C2COc3c(ccc(C)c3O)C2)cc1 (stereo not given)  52 µM
59. COc1ccc2c(=O)c(-c3ccc(O)c(O)c3)coc2c1O  53 µM
60. COc1cc2c(cc1O)CC(c1ccc(OC)c(OC)c1)CO2 (stereo not given)  56 µM
61. COc1ccc(C2COc3cc(OC)c(O)cc3C2)cc1 (stereo not given)  60 µM
62. Cc1ccc2c(c1O)OCC(c1ccccc1)C2 (stereo not given)  61 µM
63. COc1cc2c(cc1O)CC(c1ccc(O)cc1)CO2 (stereo not given)  62 µM
64. COc1ccc(CC(=O)c2ccc(O)c(O)c2O)cc1OC  63 µM
65. COc1cc2c(cc1OC)OCC(c1ccc(O)c(O)c1)C2 (stereo not given)  69 µM
66. Cc1c(O)cc2c(c1C)OCC(c1ccccc1)C2 (stereo not given)  81 µM
67. COc1cc(CC(=O)c2cc(OC)c(OC)cc2O)ccc1O  84 µM
68. Cc1c(O)cc2c(=O)c(-c3ccc(O)c(O)c3)coc2c1C  85 µM
69. COc1ccc(CC(=O)c2cc(O)c(C)c(C)c2O)cc1  93 µM
70. COc1ccc(C2COc3c(ccc(O)c3O)C2)cc1OC (stereo not given)  105 µM
71. Cc1ccc2c(c1O)OCC(c1ccc(O)cc1)C2 (stereo not given)  111 µM
72. COc1cc(CC(=O)c2cc(OC)c(O)cc2O)ccc1O  129 µM
73. COc1ccc2c(c1O)OCC(c1ccccc1)C2 (stereo not given)  168 µM
74. COc1cc(CC(=O)c2ccc(O)cc2O)ccc1O  180 µM
75. COc1ccc(C2COc3c(ccc(OC)c3O)C2)cc1 (stereo not given)  224 µM
76. COc1cc(-c2coc3c(O)c(OC)ccc3c2=O)ccc1O  228 µM
77. COc1cc(-c2coc3cc(C)c(O)cc3c2=O)ccc1O  232 µM
78. COc1cc(-c2coc3cc(OC)c(O)cc3c2=O)ccc1O  404 µM
79. COc1cc(-c2coc3c(O)c(C)ccc3c2=O)ccc1O  476 µM
80. COc1ccc(-c2coc3c(O)c(OC)ccc3c2=O)cc1  489 µM
81. COc1cc(-c2coc3cc(O)c(OC)cc3c2=O)ccc1O  655 µM
82. COc1ccc(-c2coc3cc(O)c(OC)cc3c2=O)cc1  663 µM
83. COc1cc(-c2coc3cc(OC)c(OC)cc3c2=O)ccc1O  722 µM
84. COc1cc(-c2coc3cc(O)ccc3c2=O)ccc1O  805 µM
85. COc1ccc2c(=O)c(-c3ccccc3)coc2c1O  812 µM
